Data as given in patent publication US11878970B2, “Allosteric chromenone inhibitors of phosphoinositide 3-kinase (PI3K) for the treatment of disease” (Petra Pharma Corporation, priority 2021, dated 2024).

Experiments:
[1] = target: T1, PI3K-α (PIK3CA) wild-type (WT), p110α/p85α complex (Homo sapiens, UniProt P42336); assay: PI3K-alpha kinase (PIK3CA) biochemical activity, ADP-Glo, wild-type; conditions: Soy PI lipid substrate
T1 construct: Recombinant, catalytically active human full length PIK3KA Wild-type and H1047R mutant; 6×His (N); purchased EMD Millipore Sigma 14-602M
Method in brief: (§1)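 ADP formation measured by ADP-Glo luminescence after reaction at 27 °C to about 10% ATP turnover, using 20 uM ATP, 50 uM PIP2diC8 or soy PI lipid, HEPES pH 7.4 with MgCl2. Enzyme (1-5 nM WT or H1047R p110α/p85α) and compound preincubated 1 h first; 10-point 1:3 curves fitted four-parameter for IC50.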

[2] = target: PI3K-α (PIK3CA) in MDA-MB-453 cells (Homo sapiens, UniProt P42336); assay: PI3K-alpha kinase (PIK3CA) in vitro cell based assay, MDA-MB-453 cells, SureFire Ultra AlphaLisa; conditions: read-out: PI3K-α (PIK3CA) in vitro cell based assay IC50
Procedure: PI3K-Alpha Kinase (PIK3CA) Activity In Vitro Cell Based Assay and Determining IC50 Values for Inhibitors
The MDA-MB-453 (ATCC-HTB-131) cell line was obtained from the American Type Culture Collection (Manassas, VA). Cells were maintained in Dulbecco's Modified Eagle Media (DMEM, Gibco 11965-092) supplemented with 10% Fetal Bovine Serum, heat inactivated (FBS HI, Gibco 10082-147), 1× non-essential amino acids (NEAA, Gibco 11140-050), and 1 mM sodium pyruvate (Gibco 11360-070). Cultures were maintained in a humidified incubator at 37° C. under 5% CO2/95% air.
For compound testing in 0% FBS, MDA-MB-453 cells were seeded at a density of 1.5×10^4 cells per well in white 384-well plates in 20 μl of Minimum Essential Media (MEM) assay media with 1×NEAA, 1 mM sodium pyruvate, and 1 μg/mL human insulin (Sigma I9278). Compounds dissolved in 10 mM stock solutions in DMSO were serially diluted 1:3 in DMSO to generate a 10-point dilution series and plated using an acoustic liquid handler system (Echo 550 Series Liquid Handler, Labcyte). A 5× intermediate compound dilution plate in MEM with 1×NEAA and 1 mM sodium pyruvate (150 μM starting compound concentration in 1.5% DMSO) was then prepared. Five μl of the intermediate serially diluted compounds were added to the cell plate to final concentrations ranging from […] in 0.3% DMSO. 0.3% DMSO alone was used to establish the maximum (MAX) signal and GDC-0032 at a final concentration of 1 μM was used as a reference compound for the minimum (MIN) signal. After 3 hours treatment, the medium was removed, and the cells lysed in 10 μL of 1× SureFire Lysis buffer with shaking for 10 minutes at room temperature. The Acceptor Mix (Reaction Buffer 1+Reaction Buffer 2+Activation Buffer+SureFire Ultra Acceptor Beads) was prepared by diluting Activation buffer 25-fold in combined Reaction Buffer 1 and Reaction Buffer 2. The Acceptor beads were diluted 50-fold in the combined Reaction Buffers. Five μL of Acceptor Mix was added to each well, the plate was sealed and covered with foil and incubated for 1 hour at room temperature. The Donor Mix (dilution buffer+SureFire Ultra Donor Beads) was prepared by diluting Donor Beads 50-fold in dilution buffer. Five μL of the Donor Mix was added to each well and the plate sealed and covered with foil and incubated for 1 hour at room temperature in the dark. The plates were read on a Neo2 plate reader instrument from Biotek using standard AlphaLisa settings. Compounds were tested in duplicate and the average % inhibition at each compound concentration was used to generate a single dose response curve. The data were processed using the Genedata-Screener tool. Relative IC50 values were determined using luminescence units by calculating percent inhibition with respect to the in-plate “MIN” (GDC-0032 reference control) and “MAX” (DMSO) controls. The data was analyzed using a 4-parameter nonlinear logistic equation (four-parameter logistic concentration-response curve): Y=bottom+[(top−bottom)/1+(X/IC50)slope] where Y=% inhibition, X=concentration of inhibitor, bottom=minimum value of y attained by curve-fit, top=maximum value of y attained by curve-fit and slope=steepness of curve at the IC50. % Inhibition=[(signal at X−median Min)/(median Max−median Min)]×100 IC50: concentration of compound that reduces a given response (ligand binding, enzyme response) by 50%. Relative IC50: concentration giving half the compound's maximum response.

[3] = target: T2, PI3K-α (PIK3CA) H1047R mutant, p110α/p85α complex (Homo sapiens, UniProt P42336, H1047R); assay: PI3K-alpha kinase (PIK3CA) biochemical activity, ADP-Glo, H1047R mutant; conditions: Soy PI lipid substrate
T2 construct: Recombinant, catalytically active human full length PIK3KA Wild-type and H1047R mutant; 6×His (N); purchased EMD Millipore Sigma 14-792M
Method in brief: as §1

T2 sequence (P42336 whole entry H1047R): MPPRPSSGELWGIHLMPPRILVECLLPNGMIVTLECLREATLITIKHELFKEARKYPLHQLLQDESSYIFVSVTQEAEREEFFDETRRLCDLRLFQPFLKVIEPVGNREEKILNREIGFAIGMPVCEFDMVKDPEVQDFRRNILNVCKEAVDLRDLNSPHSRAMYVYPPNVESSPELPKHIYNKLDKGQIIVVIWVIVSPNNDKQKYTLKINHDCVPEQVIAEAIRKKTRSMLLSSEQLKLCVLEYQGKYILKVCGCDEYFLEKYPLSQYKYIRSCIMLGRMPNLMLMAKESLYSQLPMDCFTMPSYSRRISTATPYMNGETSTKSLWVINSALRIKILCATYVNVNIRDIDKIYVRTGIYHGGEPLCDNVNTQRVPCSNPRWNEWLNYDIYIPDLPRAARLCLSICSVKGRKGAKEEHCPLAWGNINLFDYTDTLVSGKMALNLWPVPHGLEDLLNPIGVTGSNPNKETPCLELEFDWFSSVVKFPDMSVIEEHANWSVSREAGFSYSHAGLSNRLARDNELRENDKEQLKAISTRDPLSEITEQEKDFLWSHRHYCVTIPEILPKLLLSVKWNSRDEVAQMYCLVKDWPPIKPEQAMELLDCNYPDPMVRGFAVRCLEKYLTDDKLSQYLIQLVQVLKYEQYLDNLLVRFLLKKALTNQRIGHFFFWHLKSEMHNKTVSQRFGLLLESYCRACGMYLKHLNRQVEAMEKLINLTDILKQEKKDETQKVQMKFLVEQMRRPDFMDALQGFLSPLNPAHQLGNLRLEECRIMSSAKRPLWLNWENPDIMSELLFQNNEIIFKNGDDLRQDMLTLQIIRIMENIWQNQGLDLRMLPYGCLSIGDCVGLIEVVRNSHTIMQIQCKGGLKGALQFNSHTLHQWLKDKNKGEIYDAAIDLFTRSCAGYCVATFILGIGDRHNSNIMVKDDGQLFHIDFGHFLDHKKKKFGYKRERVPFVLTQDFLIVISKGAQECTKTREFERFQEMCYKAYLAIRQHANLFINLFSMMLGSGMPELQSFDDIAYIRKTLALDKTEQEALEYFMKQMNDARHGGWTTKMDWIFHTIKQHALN
T2 sequence (P27986 whole entry partner): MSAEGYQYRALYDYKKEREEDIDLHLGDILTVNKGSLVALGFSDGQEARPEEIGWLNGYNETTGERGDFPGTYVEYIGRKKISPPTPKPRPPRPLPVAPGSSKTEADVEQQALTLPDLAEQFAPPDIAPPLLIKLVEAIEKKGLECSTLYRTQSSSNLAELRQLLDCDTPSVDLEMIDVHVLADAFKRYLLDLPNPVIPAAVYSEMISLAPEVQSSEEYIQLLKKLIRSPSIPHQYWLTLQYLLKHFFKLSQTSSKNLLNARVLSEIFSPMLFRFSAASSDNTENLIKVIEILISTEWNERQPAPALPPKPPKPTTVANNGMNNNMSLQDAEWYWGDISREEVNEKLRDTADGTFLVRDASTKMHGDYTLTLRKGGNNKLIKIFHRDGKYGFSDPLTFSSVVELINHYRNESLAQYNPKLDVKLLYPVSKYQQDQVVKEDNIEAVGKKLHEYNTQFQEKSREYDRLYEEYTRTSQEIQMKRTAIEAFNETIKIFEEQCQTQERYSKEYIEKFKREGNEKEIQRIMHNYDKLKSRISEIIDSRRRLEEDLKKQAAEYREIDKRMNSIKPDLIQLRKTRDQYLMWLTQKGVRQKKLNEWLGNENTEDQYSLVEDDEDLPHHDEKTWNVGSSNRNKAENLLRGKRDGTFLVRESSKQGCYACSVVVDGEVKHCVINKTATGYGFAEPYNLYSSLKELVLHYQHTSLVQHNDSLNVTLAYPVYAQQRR
Sequence of PI3K-α (PIK3CA) in MDA-MB-453 cells (P27986 2-724): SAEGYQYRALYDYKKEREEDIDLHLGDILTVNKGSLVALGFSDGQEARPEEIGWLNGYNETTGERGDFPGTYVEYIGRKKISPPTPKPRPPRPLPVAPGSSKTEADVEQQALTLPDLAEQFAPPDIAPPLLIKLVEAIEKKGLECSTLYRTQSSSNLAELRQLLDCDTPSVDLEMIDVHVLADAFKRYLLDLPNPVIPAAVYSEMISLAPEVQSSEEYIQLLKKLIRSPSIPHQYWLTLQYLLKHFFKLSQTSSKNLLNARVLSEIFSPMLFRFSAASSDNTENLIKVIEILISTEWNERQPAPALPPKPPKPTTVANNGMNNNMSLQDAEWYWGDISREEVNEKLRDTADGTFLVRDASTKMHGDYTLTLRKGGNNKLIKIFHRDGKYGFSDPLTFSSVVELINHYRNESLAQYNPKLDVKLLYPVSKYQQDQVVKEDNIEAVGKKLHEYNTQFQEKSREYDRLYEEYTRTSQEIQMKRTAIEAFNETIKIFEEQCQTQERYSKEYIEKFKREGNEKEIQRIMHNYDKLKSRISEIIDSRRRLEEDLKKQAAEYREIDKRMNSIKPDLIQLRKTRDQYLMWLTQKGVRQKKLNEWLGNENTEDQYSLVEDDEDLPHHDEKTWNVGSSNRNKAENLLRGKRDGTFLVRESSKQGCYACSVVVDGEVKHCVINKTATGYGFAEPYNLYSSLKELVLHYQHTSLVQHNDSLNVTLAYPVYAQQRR
Sequence of PI3K-α (PIK3CA) in MDA-MB-453 cells (P42336 whole entry): as the sequence (P42336 whole entry H1047R) above, with R1047H counted along it

SMILES	IC50 [1] [nM]	IC50 [2] [nM]	IC50 [3] [nM]
Cc1cc(C(C)Nc2cccc(F)c2C(=O)O)c2oc(-c3nn(C)c4ccccc34)cc(=O)c2c1 (single isomer, unassigned) [Example 189, 2-Fluoro-6-[1-[6-methyl-2-(1-methylindazol-3-yl)-4-oxo-chromen-8-yl]ethylamino]benzoic acid]	500 to 1000	50 to 100	< 500
Cc1cc([C@@H](C)Nc2ccccc2C(=O)O)c2oc(-c3ccc4c(cnn4Cc4ccccc4)c3)c(C)c(=O)c2c1 [Example 211, 2-[[(1R)-1-[2-(1-Benzylindazol-5-yl)-3,6-dimethyl-4-oxo-chromen-8-yl]ethyl]amino]benzoic acid]	500 to 1000	50 to 100	< 500
Cc1cc(C(C)Nc2ccc(Cl)nc2C(=O)O)c2oc(-c3ccc4cnn(C)c4c3)cc(=O)c2c1 (single isomer, unassigned) [Example 219, 6-Chloro-3-[1-[6-methyl-2-(1-methylindazol-6-yl)-4-oxo-chromen-8-yl]ethylamino]pyridine-2-carboxylic acid]	1000 to 5000	> 500	1000 to 5000
Cc1cc([C@@H](C)Nc2ccc(C(F)(F)F)cc2C(=O)O)c2oc(-c3ccc4nn(C)cc4c3)c(C)c(=O)c2c1 [Example 235, 2-[[(1R)-1-[3,6-Dimethyl-2-(2-methylindazol-5-yl)-4-oxo-chromen-8-yl]ethyl]amino]-5-(trifluoromethyl)benzoic acid]	1000 to 5000	50 to 100	< 500
Cc1cc(C(C)Nc2ccccc2C(=O)O)c2oc(-c3ccc4cc[nH]c4c3)c(C)c(=O)c2c1 (single isomer, unassigned) [Example 90, 2-[1-[2-(1H-Indol-6-yl)-3,6-dimethyl-4-oxo-chromen-8-yl]ethylamino]benzoic acid]	1000 to 5000	< 50	< 500
Cc1cc(C(C)Nc2ccccc2C(=O)O)c2oc(-c3ccc4[nH]ncc4c3)c(C)c(=O)c2c1 (single isomer, unassigned) [Example 132, 2-[1-[2-(1H-Indazol-5-yl)-3,6-dimethyl-4-oxo-chromen-8-yl]ethylamino]benzoic acid]	500 to 1000	< 50	< 500
Cc1cc(-c2cc(=O)c3cc(C(F)(F)F)cc(C(C)Nc4ccc(Cl)nc4C(=O)O)c3o2)cc2cn(C)nc12 (single isomer, unassigned) [Example 192, 6-Chloro-3-[1-[2-(2,7-dimethylindazol-5-yl)-4-oxo-6-(trifluoromethyl)chromen-8-yl]ethylamino]pyridine-2-carboxylic acid]	500 to 1000	> 500	500 to 1000
Cc1cc(C(C)Nc2ccccc2C(=O)O)c2oc(-c3ccc4cnn(C)c4c3)c(C)c(=O)c2c1 (single isomer, unassigned) [Example 149, 2-[1-[3,6-Dimethyl-2-(1-methylindazol-6-yl)-4-oxo-chromen-8-yl]ethylamino]benzoic acid]	< 500	< 50	< 500
Cc1cc([C@@H](C)Nc2ccc(Cl)cc2C(=O)O)c2oc(-c3ccc4c(cnn4C)c3)c(C)c(=O)c2c1 [Example 259, 5-Chloro-2-[[(1R)-1-[3,6-dimethyl-2-(1-methylindazol-5-yl)-4-oxo-chromen-8-yl]ethyl]amino]benzoic acid]	< 500	50 to 100	< 500
Cc1cc(C(C)Nc2cccc(F)c2C(=O)O)c2oc(-c3ccc4nn(C)cc4c3)cc(=O)c2c1 (single isomer, unassigned) [Example 171, 2-Fluoro-6-[1-[6-methyl-2-(2-methylindazol-5-yl)-4-oxo-chromen-8-yl]ethylamino]benzoic acid]	1000 to 5000	> 500	1000 to 5000
Cc1cc(C(C)Nc2ccccc2C(=O)O)c2oc(-c3cnn4ccccc34)cc(=O)c2c1 (single isomer, unassigned) [Example 125, 2-[1-(6-Methyl-4-oxo-2-pyrazolo[1,5-a]pyridin-3-yl-chromen-8-yl)ethylamino]benzoic acid]	1000 to 5000	< 50	< 500
Cc1cc(C(C)Nc2ccc(Cl)nc2C(=O)O)c2oc(-c3ccc4cnn(C)c4c3)cc(=O)c2c1 (single isomer, unassigned) [Example 220, 6-Chloro-3-[1-[6-methyl-2-(1-methylindazol-6-yl)-4-oxo-chromen-8-yl]ethylamino]pyridine-2-carboxylic acid]	< 500	< 50	< 500
Cc1cc(C(C)Nc2ccc(Cl)nc2C(=O)O)c2oc(-c3ccc4cc[nH]c4n3)cc(=O)c2c1 (single isomer, unassigned) [Example 215, 6-Chloro-3-[1-[6-methyl-4-oxo-2-(1H-pyrrolo[2,3-b]pyridin-6-yl)chromen-8-yl]ethylamino]pyridine-2-carboxylic acid]	500 to 1000	< 50	< 500
C[C@@H](Nc1ccc(Cl)nc1C(=O)O)c1cc(C(F)(F)F)cc2c(=O)cc(-c3ccc4nn(C)cc4c3)oc12 [Example 169, 6-Chloro-3-[[(1R)-1-[2-(2-methylindazol-5-yl)-4-oxo-6-(trifluoromethyl)chromen-8-yl]ethyl]amino]pyridine-2-carboxylic acid]	500 to 1000	50 to 100	< 500
CC(Nc1ccc(Cl)nc1C(=O)O)c1cc(C(F)(F)F)cc2c(=O)cc(-c3cc(Cl)c4nn(C)cc4c3)oc12 (single isomer, unassigned) [Example 193, 6-Chloro-3-[1-[2-(7-chloro-2-methyl-indazol-5-yl)-4-oxo-6-(trifluoromethyl)chromen-8-yl]ethylamino]pyridine-2-carboxylic acid]	500 to 1000	< 50	< 500
Cc1cc([C@@H](C)Nc2cccnc2C(=O)O)c2oc(-c3cc(C)c4nn(C)cc4c3)cc(=O)c2c1 [Example 231, 3-[[(1R)-1-[2-(2,7-Dimethylindazol-5-yl)-6-methyl-4-oxo-chromen-8-yl]ethyl]amino]pyridine-2-carboxylic acid]	> 10000	100 to 500	1000 to 5000
Cc1cc([C@@H](C)Nc2ccccc2C(=O)O)c2oc(-c3ccc4nn(Cc5ccccc5)cc4c3)c(C)c(=O)c2c1 [Example 210, 2-[[(1R)-1-[2-(2-Benzylindazol-5-yl)-3,6-dimethyl-4-oxo-chromen-8-yl]ethyl]amino]benzoic acid]	500 to 1000	< 50	< 500
Cc1cc(C(C)Nc2ccccc2C(=O)O)c2oc(-c3cc(C)c4nn(C)cc4c3)cc(=O)c2c1 (single isomer, unassigned) [Example 144, 2-[1-[2-(2,7-Dimethylindazol-5-yl)-6-methyl-4-oxo-chromen-8-yl]ethylamino]benzoic acid]	1000 to 5000	< 50	< 500
Cc1cc(C(C)Nc2ccccc2C(=O)O)c2oc(-c3cnn4cccnc34)cc(=O)c2c1 (single isomer, unassigned) [Example 34, 2-[1-(6-Methyl-4-oxo-2-pyrazolo[1,5-a]pyrimidin-3-yl-chromen-8-yl)ethylamino]benzoic acid]	1000 to 5000	50 to 100	< 500
